Results reported in patent US20260102501A1, “ANTI-CANCER NUCLEAR HORMONE RECEPTOR-TARGETING COMPOUNDS” (Nuvation Bio Inc., priority 2022, published 2026).

Legend:
[1] = target: T1, AR (cytosol from LnCaP cells) (Homo sapiens, UniProt P10275, T878A); assay: AR binding assay (3H-R1881 displacement)
T1 sequence (P10275 1-920 T878A): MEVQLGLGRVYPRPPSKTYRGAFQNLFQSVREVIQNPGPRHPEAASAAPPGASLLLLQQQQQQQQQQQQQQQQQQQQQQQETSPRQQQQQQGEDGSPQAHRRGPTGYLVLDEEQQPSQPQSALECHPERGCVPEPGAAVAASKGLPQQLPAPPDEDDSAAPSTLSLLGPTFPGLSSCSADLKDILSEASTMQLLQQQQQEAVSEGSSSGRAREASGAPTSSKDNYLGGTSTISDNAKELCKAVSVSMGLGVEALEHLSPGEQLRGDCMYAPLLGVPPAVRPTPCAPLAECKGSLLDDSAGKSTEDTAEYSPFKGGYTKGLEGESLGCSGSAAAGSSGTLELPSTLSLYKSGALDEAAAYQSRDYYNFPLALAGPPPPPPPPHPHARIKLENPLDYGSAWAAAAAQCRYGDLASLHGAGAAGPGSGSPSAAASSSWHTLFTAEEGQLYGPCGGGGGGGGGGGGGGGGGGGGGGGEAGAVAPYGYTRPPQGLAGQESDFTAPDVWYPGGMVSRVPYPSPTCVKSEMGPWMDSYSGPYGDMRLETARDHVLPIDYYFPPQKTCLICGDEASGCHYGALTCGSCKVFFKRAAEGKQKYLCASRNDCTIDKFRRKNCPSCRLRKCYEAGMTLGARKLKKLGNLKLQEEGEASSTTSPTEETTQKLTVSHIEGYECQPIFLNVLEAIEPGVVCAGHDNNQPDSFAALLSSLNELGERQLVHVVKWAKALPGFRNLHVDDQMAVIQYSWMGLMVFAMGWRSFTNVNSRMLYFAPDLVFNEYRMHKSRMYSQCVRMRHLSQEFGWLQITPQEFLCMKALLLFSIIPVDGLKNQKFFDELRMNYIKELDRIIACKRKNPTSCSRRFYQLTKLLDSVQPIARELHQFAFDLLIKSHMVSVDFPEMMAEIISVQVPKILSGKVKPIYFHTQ
Experimental: The plate was then centrifuged at 3000 rpm for 30 minutes at 4° C.

LNCap cells = assay: Cell viability assay (CellTiterGlo); assay type: cell-based; settings: Homo sapiens, 144 h, read-out: LNCap (IC50, nM)
IEC6 cells = assay: Cell viability assay (CellTiterGlo); settings: Rattus norvegicus, IEC-6, 144 h, read-out: IEC-6 (IC50, nM)
[2] = target: T2, Progesterone Receptor (PR)-LBD and coactivator peptide (Homo sapiens, UniProt P06401); assay: PR coactivator antagonist assay; settings: 2.5 nM PR-LBD, 10 nM progesterone-induced fluorescence response
T2 sequence (P06401 679-913 limits assumed): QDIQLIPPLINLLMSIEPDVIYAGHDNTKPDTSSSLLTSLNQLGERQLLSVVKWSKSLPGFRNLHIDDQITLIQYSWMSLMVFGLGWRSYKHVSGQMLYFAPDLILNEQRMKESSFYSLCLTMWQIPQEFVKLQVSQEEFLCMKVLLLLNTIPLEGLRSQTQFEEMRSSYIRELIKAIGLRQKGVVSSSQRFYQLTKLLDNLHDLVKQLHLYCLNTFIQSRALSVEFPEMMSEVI

[3] = target: T3, Progesterone PR-B receptors from human breast carcinoma T47D cells (Homo sapiens, UniProt P06401); assay: PR binding assay ([3H] Progesterone displacement)
T3 sequence (P06401 1-933): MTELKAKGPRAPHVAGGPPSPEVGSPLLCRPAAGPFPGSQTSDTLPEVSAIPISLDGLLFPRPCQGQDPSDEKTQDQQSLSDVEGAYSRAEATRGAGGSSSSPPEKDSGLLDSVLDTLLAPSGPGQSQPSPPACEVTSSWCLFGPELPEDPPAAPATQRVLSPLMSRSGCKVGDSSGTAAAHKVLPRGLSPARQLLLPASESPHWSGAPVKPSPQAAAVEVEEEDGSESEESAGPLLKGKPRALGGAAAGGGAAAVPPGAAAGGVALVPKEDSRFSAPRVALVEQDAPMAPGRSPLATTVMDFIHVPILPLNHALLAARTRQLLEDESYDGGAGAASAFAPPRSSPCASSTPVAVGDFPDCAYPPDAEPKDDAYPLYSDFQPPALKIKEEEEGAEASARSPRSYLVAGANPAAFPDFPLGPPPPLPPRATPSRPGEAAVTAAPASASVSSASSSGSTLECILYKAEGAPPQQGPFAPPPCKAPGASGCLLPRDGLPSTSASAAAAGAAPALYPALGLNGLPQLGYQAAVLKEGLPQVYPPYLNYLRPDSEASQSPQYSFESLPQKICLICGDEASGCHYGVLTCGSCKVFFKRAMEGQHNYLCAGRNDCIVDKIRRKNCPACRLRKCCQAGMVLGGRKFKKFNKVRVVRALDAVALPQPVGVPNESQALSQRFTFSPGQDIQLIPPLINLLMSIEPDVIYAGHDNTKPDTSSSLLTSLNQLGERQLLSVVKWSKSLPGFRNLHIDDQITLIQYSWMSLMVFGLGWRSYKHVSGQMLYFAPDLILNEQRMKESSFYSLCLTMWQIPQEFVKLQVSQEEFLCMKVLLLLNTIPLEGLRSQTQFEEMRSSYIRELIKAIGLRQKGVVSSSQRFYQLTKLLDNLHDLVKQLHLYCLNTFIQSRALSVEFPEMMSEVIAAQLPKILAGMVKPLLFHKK

[4] = target: T4, GR (cytosol from IM-9 cells) (Homo sapiens, UniProt P04150); assay: GR binding assay (3H-Dexamethasone displacement)
T4 sequence (P04150 1-777): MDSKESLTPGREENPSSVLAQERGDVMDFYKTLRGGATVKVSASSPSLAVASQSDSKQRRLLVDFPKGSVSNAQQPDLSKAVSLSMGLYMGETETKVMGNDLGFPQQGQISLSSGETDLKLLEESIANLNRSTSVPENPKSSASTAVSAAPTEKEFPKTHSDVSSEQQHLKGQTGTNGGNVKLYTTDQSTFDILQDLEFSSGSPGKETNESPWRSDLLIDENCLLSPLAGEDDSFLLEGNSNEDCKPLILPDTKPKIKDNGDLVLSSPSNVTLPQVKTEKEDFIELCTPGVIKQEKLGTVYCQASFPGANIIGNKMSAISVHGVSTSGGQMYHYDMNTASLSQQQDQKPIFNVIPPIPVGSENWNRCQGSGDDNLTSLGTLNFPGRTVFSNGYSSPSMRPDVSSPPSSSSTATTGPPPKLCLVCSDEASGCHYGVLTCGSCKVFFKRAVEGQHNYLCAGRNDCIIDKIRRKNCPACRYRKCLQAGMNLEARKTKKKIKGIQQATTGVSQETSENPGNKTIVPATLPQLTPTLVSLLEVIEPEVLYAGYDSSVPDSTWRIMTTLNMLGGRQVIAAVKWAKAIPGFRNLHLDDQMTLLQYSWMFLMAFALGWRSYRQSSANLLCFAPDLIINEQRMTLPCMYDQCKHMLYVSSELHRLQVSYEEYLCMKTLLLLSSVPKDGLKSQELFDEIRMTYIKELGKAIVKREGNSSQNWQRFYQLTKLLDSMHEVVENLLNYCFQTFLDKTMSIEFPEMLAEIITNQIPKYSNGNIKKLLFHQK

[5] = target: T5, ligand binding domain of the glucocorticoid receptor (HEK293 cells stably expressing) (Homo sapiens, UniProt P04150); assay: GR antagonism assay (luciferase reporter)
T5 sequence (P04150 524-758 limits assumed): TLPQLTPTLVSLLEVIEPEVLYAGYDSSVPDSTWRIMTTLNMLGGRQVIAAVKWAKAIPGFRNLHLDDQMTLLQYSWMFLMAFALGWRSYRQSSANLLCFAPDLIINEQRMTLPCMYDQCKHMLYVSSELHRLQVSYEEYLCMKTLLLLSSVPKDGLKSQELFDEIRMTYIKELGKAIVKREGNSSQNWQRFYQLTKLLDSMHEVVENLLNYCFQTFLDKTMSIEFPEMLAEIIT

T47D cells = assay: Cell viability assay (CellTiterGlo); assay type: cell-based; settings: Homo sapiens, 144 h, read-out: T47D (IC50, nM)

## CC[C@@]1(O)C(=O)OCc2c1cc1n(c2=O)Cc2cc3c(CN(C)C)c(OC(=O)N4CCN(CCCCCN(C)c5ccc([C@H]6C[C@@]7(C)[C@@H](CC[C@]7(OC(C)=O)C(C)=O)[C@@H]7CCC8=CC(=O)CCC8=C76)cc5)CC4)ccc3nc2-1 [Compound 8, (S)-10-((Dimethylamino)methyl)-4-ethyl-4-hydroxy-3,14-dioxo-3,4,12,14-tetrahydro-1H-pyrano[3′,4′:6,7]indolizino[1,2-b]quinolin-9-yl 4-(5-((4-((8S,11R,13S,14S,17R)-17-acetoxy-17-acetyl-13-methyl-3-oxo-2,3,6,7,8,11,12,13,14,15,16,17-dodecahydro-1H-cyclopenta[a]phenanthren-11-yl)phenyl)(methyl)amino)pentyl)piperazine-1-carboxylate]
[1]
  IC50: < 0.01 µM
LNCap cells
  IC50: 101 to 1000 nM
IEC6 cells
  IC50: 101 to 1000 nM
[2]
  PR antagonism: a (IC50 =< 10 nM)
[3]
  IC50: < 0.01 µM
[4]
  IC50: 0.01 to 0.1 µM
[5]
  IC50: 0.01 to 0.1 µM
T47D cells
  IC50: 10 to 100 nM

## CCCCCCC(=O)O[C@]1(CC)C(=O)OCc2c1cc1n(c2=O)Cc2cc3c(CN(C)C)c(OC(=O)N4CCN(CCCCCCN(C)c5ccc([C@H]6C[C@@]7(C)[C@@H](CC[C@]7(OC(C)=O)C(C)=O)[C@@H]7CCC8=CC(=O)CCC8=C76)cc5)CC4)ccc3nc2-1 [Compound No. 12, (S)-10-((Dimethylamino)methyl)-4-ethyl-4-(heptanoyloxy)-3,14-dioxo-3,4,12,14-tetrahydro-1H-pyrano[3′,4′:6,7]indolizino[1,2-b]quinolin-9-yl 4-(6-((4-((8S,11R,13S,14S,17R)-17-acetoxy-17-acetyl-13-methyl-3-oxo-2,3,6,7,8,11,12,13,14,15,16,17-dodecahydro-1H-cyclopenta[a]phenanthren-11-yl)phenyl)(methyl)amino)hexyl)piperazine-1-carboxylate]
[1]
  IC50: 0.101 to 1 µM
LNCap cells
  IC50: > 1000 nM
IEC6 cells
  IC50: > 1000 nM
[2]
  PR antagonism: a (IC50 =< 10 nM)
[3]
  IC50: < 0.01 µM
[4]
  IC50: < 0.01 µM
[5]
  IC50: 0.01 to 0.1 µM
T47D cells
  IC50: > 1000 nM

## CC[C@@]1(OC(=O)CN(C)C)C(=O)OCc2c1cc1n(c2=O)Cc2cc3c(CN(C)C)c(OC(=O)N4CCN(CCCCCCN(C)c5ccc([C@H]6C[C@@]7(C)[C@@H](CC[C@]7(OC(C)=O)C(C)=O)[C@@H]7CCC8=CC(=O)CCC8=C76)cc5)CC4)ccc3nc2-1 [Compound No. 14, (S)-10-((Dimethylamino)methyl)-4-((dimethylglycyl)oxy)-4-ethyl-3,14-dioxo-3,4,12,14-tetrahydro-1H-pyrano[3′,4′:6,7]indolizino[1,2-b]quinolin-9-yl 4-(6-((4-((8S,11R,13S,14S,17R)-17-acetoxy-17-acetyl-13-methyl-3-oxo-2,3,6,7,8,11,12,13,14,15,16,17-dodecahydro-1H-cyclopenta[a]phenanthren-11-yl)phenyl)(methyl)amino)hexyl)piperazine-1-carboxylate]
[1]
  IC50: 0.01 to 0.1 µM
LNCap cells
  IC50: 101 to 1000 nM
IEC6 cells
  IC50: 10 to 100 nM
[2]
  PR antagonism: a (IC50 =< 10 nM)
[3]
  IC50: < 0.01 µM
[4]
  IC50: < 0.01 µM
[5]
  IC50: 0.01 to 0.1 µM
T47D cells
  IC50: 10 to 100 nM
